Earlier results, collected in patent US5801147A, “Polypeptides and use thereof” (Takeda Chemical Industries, Ltd., priority 1991, dated 1998).
No end group written: not given here.

Test system: hypophysis cells
Conditions: prior art

Substance | c-AMP-producing activity (background statement)
PACAP23: polypeptide consisting of 23 amino acid residues on the N-terminal side of PACAP38 (HSDGIFTDSYSRYRKQMAVKKYL; ends and bridges not checked; UniProt P18509 132-154, looked up, fragment) | the same activity as that of PACAP27
PACAP24: polypeptide consisting of 24 amino acid residues on the N-terminal side of PACAP38 (HSDGIFTDSYSRYRKQMAVKKYLA; ends and bridges not checked; UniProt P18509 132-155, looked up, fragment) | the same activity as that of PACAP27
PACAP25: polypeptide consisting of 25 amino acid residues on the N-terminal side of PACAP38 (HSDGIFTDSYSRYRKQMAVKKYLAA; ends and bridges not checked; UniProt P18509 132-156, looked up, fragment) | the same activity as that of PACAP27
PACAP26: polypeptide consisting of 26 amino acid residues on the N-terminal side of PACAP38 (HSDGIFTDSYSRYRKQMAVKKYLAAV; ends and bridges not checked; UniProt P18509 132-157, looked up, fragment) | the same activity as that of PACAP27
PACAP27: a polypeptide consisting of 27 amino acid residues on the N-terminal side of PACAP38 (HSDGIFTDSYSRYRKQMAVKKYLAAVL; ends and bridges not checked; UniProt P18509 132-158, looked up) | The activity of PACAP38 has also been found
PACAP38: polypeptide consisting of 38 amino acid residues, discovered in humans, sheep and rats (SEQ ID NO:1) (HSDGIFTDSYSRYRKQMAVKKYLAAVLGKRYKQRVKNK; ends and bridges not checked) | enhances the production of intracellular c-AMP in hypophysis cells
